Results reported in publication PMC11229689, “In Vitro Selection of Macrocyclic L-α/D-α/β/γ-Hybrid Peptides Targeting IFN-γ/IFNGR1 Protein–Protein Interaction” (Journal of the American Chemical Society, 2024).
*1 amine or outer side, *2 acyl side, *3 side chain or, on linkers, in order; H or OH if unused. Where a SMILES comes first, the peptide text is derived from it. Bridges are numbered along the chain shown (N, C = ends). [ ]: non-standard residue; d: D form. Acbc(trans-1,3) = O=C([C@H]1C[C@H](N[*:1])C1)[*:2]; Acbc(cis-1,3) = O=C([C@H]1C[C@@H](N[*:1])C1)[*:2]; X1 = O=C([C@@H]1CCC[C@@H]1N[*:1])[*:2]

Experiments:
[1] = target: T1, IFN-γ/IFNGR1 protein–protein interaction (Homo sapiens, UniProt P15260); test: IFNGR1 inhibition assay using AlphaLISA; assay type: biochemical; conditions: four-parameter dose–response fit, n = 3
T1 construct: purchased ACROBiosystems
T1 sequence (P15260 18-245 limits assumed): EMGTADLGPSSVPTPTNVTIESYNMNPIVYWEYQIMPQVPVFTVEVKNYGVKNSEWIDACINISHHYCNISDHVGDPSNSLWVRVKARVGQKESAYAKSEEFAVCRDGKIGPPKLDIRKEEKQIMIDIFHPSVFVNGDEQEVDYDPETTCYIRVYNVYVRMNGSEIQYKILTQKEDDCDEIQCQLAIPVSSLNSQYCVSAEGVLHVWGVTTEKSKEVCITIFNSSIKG
Protocol: IFNGR1 inhibition assay using AlphaLISA
The inhibitory activity of peptides against IFN-γ/IFNGR1 protein–protein interaction (PPI) was determined by AlphaLISA.5 Peptides, proteins, and beads were diluted in AlphaLISA immunoassay buffer (PerkinElmer, AL000C). 3.6 μL of 5 nM Fc-tagged IFNGR1 and 3.6 μL of synthetic peptides were mixed in AlphaPlate-384 Shallow Well (PerkinElmer) and preincubated at 25 °C for 10 min. 3.6 μL of 15 nM biotin-tagged IFN-γ was then added to the mix and incubated at 25 °C for 20 min. 3.6 μL each human IgG acceptor beads (PerkinElmer) and streptavidin donor beads (PerkinElmer) were added to the above mix and incubated at 25 °C for 30 min in dark place. Emission at 615 nm was measured […]
by EnSpire Multimode Plate Reader (PerkinElmer). The fraction of bound IFN-γ/IFNGR1 was calculated by the intensity of emission in the presence of peptide divided by that in the absence of […]
peptide. […]
Puromycin. Normocin, Blasticidin, Zeocin, and Puromycin were excluded when conducting the experiments. To evaluate the cellular activity of peptides, peptide mixtures were added to 50,000 cells/well in a flat-bottom 96-well plate and pre-incubated for 30 min at 37 °C before stimulation.
Subsequently, 1 ng/mL of recombinant IFN-γ (InvivoGen) was added to each well in a final reaction volume of 200 μL, followed by incubation for 20 h at 37 °C. 20 μL of supernatants from the induced cells was added to 180 μL Q U A N T I-Blue TM solution (InvivoGen). After further incubation for 3 h at 37 °C, the expression levels of the secreted embryonic alkaline phosphatase (SEAP) were determined by reading the O.D. at 650 nm on a Tecan M1000 PRO microplate reader (Tecan Group) and normalized to the non-treated well. IC50 value was analyzed by a normalized dose-response curve fitting by using GraphPad Prism 9.
HEK-DualTM IFN-γ cells were used for the cell viability assay. 10,000 cells/well were added to each well in a flat-bottom 96-well plate. After 24 h, peptide mixtures were added to each well in a final volume of 100 μL. After further incubation for 24 h, 10 μL CCK-8 reagent (Dojindo) was added to […]

Fc-tagged human IFNGR1 = target: T2, Fc-tagged human IFNGR1 (Homo sapiens, UniProt P15260); test: Binding kinetics and affinity to IFNGR1 by surface plasmon resonance (SPR); conditions: SPR, 25 °C, 1:1 binding model; for Kd: read-out: KD; for kon: single-cycle kinetics, read-out: ka
T2 construct: purchased ACROBiosystems
T2 sequence (P15260 18-489): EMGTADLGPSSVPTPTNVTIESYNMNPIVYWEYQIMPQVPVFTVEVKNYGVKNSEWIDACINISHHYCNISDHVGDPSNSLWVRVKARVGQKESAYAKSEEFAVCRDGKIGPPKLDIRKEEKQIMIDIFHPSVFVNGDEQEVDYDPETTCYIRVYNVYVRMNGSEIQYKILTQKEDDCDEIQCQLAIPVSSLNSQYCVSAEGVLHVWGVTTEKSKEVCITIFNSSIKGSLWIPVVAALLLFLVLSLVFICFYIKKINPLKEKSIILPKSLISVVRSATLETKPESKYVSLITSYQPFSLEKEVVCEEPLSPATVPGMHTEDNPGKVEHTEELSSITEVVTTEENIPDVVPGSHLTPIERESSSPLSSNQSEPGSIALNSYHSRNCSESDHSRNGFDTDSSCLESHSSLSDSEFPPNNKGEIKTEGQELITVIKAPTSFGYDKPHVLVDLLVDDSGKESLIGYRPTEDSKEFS
Protocol: Binding affinities of IA1 and IA2 against IFNGR1 were evaluated by surface plasmon resonance (SPR) (Table 1 and SI Figure S6A). […] To investigate the contribution of the N-terminal [yVPβ^1RR] motif and β^1 residue in IA1, three scrambled peptides IA1s1–3 and a variant IA1β^14A were synthesized and evaluated. […] We next evaluated inhibitory activities of IA1 and IA2 against the ligand–receptor PPI between IFN-γ and IFNGR1 using AlphaLISA (Table 1 and SI Figure S7).[37] […] We also determined the serum half-lives of IA1 and IA2, considering peptidase resistance as an important factor for therapeutic peptides.[24] A sample peptide and a peptidase-resistant internal standard peptide were coincubated in human serum at 37 °C, and the relative amount of the remaining sample peptide was estimated by LC/MS. […]
Evaluation of binding affinity of peptides by surface plasmon resonance The binding affinities of selected peptides and IFNGR1 were analyzed by surface plasmon resonance (SPR) using a Biacore T200 instrument (Cytiva) at 25 °C with the following running buffer: 10 mM Tris-HCl (pH 8.0), 150 mM NaCl, 0.05% (v/v) Tween 20 , and 0.1% (v/v) DMSO. Fc-tagged IFNGR1 was immobilized on a series S sensor chip protein G (Cytiva) to a surface density of 1,200–1,600 response units following the immobilization protocols provided by Cytiva. The kinetic constants were determined by a single-cycle kinetics method by the injection of five different concentrations (twofold dilution series) of each peptide at a flow rate of 30 μL/min. The resulting sensorgrams were fitted to the standard 1:1 interaction model and analyzed using Biacore evaluation software. […]

IC50 [1] [nM]	Kd (Fc-tagged human IFNGR1) [nM]	kon (Fc-tagged human IFNGR1) [M⁻¹ s⁻¹]	Compound
350 ± 30	49 ± 7	470000 ± 320000	CC(C)[C@@H]1NC(=O)[C@@H](Cc2ccc(O)cc2)NC(=O)CSC[C@H](C(N)=O)NC(=O)[C@H](C)NC(=O)[C@H](CO)NC(=O)[C@H](CCCNC(=N)N)NC(=O)[C@H](CCCNC(=N)N)NC(=O)CNC(=O)[C@H]2C[C@@H](C2)NC(=O)[C@H](Cc2c[nH]cn2)NC(=O)[C@H](CC(N)=O)NC(=O)[C@H](CCCNC(=N)N)NC(=O)[C@H](CCCNC(=N)N)NC(=O)[C@@H]2CCC[C@@H]2NC(=O)[C@H](C)NC1=O [IB3γ^19γ^2, ^AcyVAβ^1RRNHγ^2GRRSAc-NH2] ({CH2CO}-[dY]VA[X1]RRNH[Acbc(trans-1,3)]GRRSA[dC]-NH2; thioether N-15)
220 ± 10	130 ± 20	17000 ± 5000	CC(C)[C@@H]1NC(=O)[C@@H](Cc2ccc(O)cc2)NC(=O)CSC[C@H](C(N)=O)NC(=O)[C@H](CC(N)=O)NC(=O)[C@H](Cc2c[nH]cn2)NC(=O)[C@H](CCCNC(=N)N)NC(=O)[C@H]2C[C@@H](C2)NC(=O)[C@H]([C@@H](C)O)NC(=O)[C@H](Cc2c[nH]cn2)NC(=O)[C@@H]2CCCN2C(=O)[C@H](CO)NC(=O)[C@H](CCCNC(=N)N)NC(=O)[C@H](CCCNC(=N)N)NC(=O)[C@@H]2CCC[C@@H]2NC(=O)[C@@H]2CCCN2C1=O [IB5, ^AcyVPβ^1RRSPHTγ^2RHNc-NH2] ({CH2CO}-[dY]VP[X1]RRSPHT[Acbc(trans-1,3)]RHN[dC]-NH2; thioether N-15)
12 ± 3	11	650000 ± 20000	CC(C)[C@@H]1NC(=O)[C@@H](Cc2ccc(O)cc2)NC(=O)CSC[C@H](C(N)=O)NC(=O)[C@H](CCCNC(=N)N)NC(=O)[C@H](CO)NC(=O)[C@H](CCCNC(=N)N)NC(=O)[C@H](Cc2c[nH]cn2)NC(=O)CNC(=O)[C@H]2C[C@H](C2)NC(=O)[C@H](Cc2c[nH]cn2)NC(=O)[C@H](CC(N)=O)NC(=O)[C@H](CCCNC(=N)N)NC(=O)[C@H](CCCNC(=N)N)NC(=O)[C@@H]2CCC[C@@H]2NC(=O)[C@H](C)NC1=O [IB1, ^AcyVAβ^1RRNHγ^1GHRSRc-NH2] ({CH2CO}-[dY]VA[X1]RRNH[Acbc(cis-1,3)]GHRSR[dC]-NH2; thioether N-15)
12	9.5 ± 0.7	930000 ± 420000	CC(C)[C@@H]1NC(=O)[C@@H](Cc2ccc(O)cc2)NC(=O)CSC[C@H](C(N)=O)NC(=O)[C@H](C)NC(=O)[C@H](CO)NC(=O)[C@H](CCCNC(=N)N)NC(=O)[C@H](CCCNC(=N)N)NC(=O)CNC(=O)[C@H]2C[C@H](C2)NC(=O)[C@H](Cc2c[nH]cn2)NC(=O)[C@H](CC(N)=O)NC(=O)[C@H](CCCNC(=N)N)NC(=O)[C@H](CCCNC(=N)N)NC(=O)[C@@H]2CCC[C@@H]2NC(=O)[C@H](C)NC1=O [IB3, ^AcyVAβ^1RRNHγ^1GRRSAc-NH2] ({CH2CO}-[dY]VA[X1]RRNH[Acbc(cis-1,3)]GRRSA[dC]-NH2; thioether N-15)
> 100000	> 10000	–	CC(C)[C@@H]1NC(=O)[C@@H](Cc2ccc(O)cc2)NC(=O)CSC[C@H](C(N)=O)NC(=O)[C@H](CCCNC(=N)N)NC(=O)[C@H](CO)NC(=O)[C@H](CCCNC(=N)N)NC(=O)[C@H](Cc2c[nH]cn2)NC(=O)CNC(=O)[C@H]2C[C@H](C2)NC(=O)[C@H](Cc2c[nH]cn2)NC(=O)[C@H](CC(N)=O)NC(=O)[C@H](CCCNC(=N)N)NC(=O)[C@H](CCCNC(=N)N)NC(=O)[C@H](C)NC(=O)[C@H](C)NC1=O [IB1β^14A, ^AcyVAA RRNHγ^1GHRSRc-NH2] ({CH2CO}-[dY]VAARRNH[Acbc(cis-1,3)]GHRSR[dC]-NH2; thioether N-15)
680 ± 50	68 ± 12	75000 ± 25000	CC(C)[C@@H]1NC(=O)[C@@H](Cc2ccc(O)cc2)NC(=O)CSC[C@H](C(N)=O)NC(=O)[C@H](C)NC(=O)[C@H](Cc2c[nH]cn2)NC(=O)[C@H](CCCNC(=N)N)NC(=O)[C@H](CCCNC(=N)N)NC(=O)CNC(=O)[C@H]2C[C@@H](C2)NC(=O)[C@H](Cc2c[nH]cn2)NC(=O)[C@H](CC(N)=O)NC(=O)[C@H](CCCNC(=N)N)NC(=O)[C@H](CCCNC(=N)N)NC(=O)[C@@H]2CCC[C@@H]2NC(=O)[C@H](C)NC1=O [IB2γ^19γ^2, ^AcyVAβ^1RRNHγ^2GRRHAc-NH2] ({CH2CO}-[dY]VA[X1]RRNH[Acbc(trans-1,3)]GRRHA[dC]-NH2; thioether N-15)
87 ± 15	87 ± 2	180000	CC(C)[C@@H]1NC(=O)[C@@H](Cc2ccc(O)cc2)NC(=O)CSC[C@H](C(N)=O)NC(=O)[C@H](CC(N)=O)NC(=O)[C@H](CO)NC(=O)[C@H](CCCNC(=N)N)NC(=O)[C@H]2C[C@H](C2)NC(=O)[C@H](Cc2c[nH]cn2)NC(=O)[C@H](CC(N)=O)NC(=O)[C@H]([C@@H](C)O)NC(=O)[C@H](Cc2c[nH]cn2)NC(=O)[C@H](CCCNC(=N)N)NC(=O)[C@H](CCCNC(=N)N)NC(=O)[C@@H]2CCC[C@@H]2NC(=O)[C@@H]2CCCN2C1=O [IA1, ^AcyVPβ^1RRHTNHγ^1RSNc-NH2] ({CH2CO}-[dY]VP[X1]RRHTNH[Acbc(cis-1,3)]RSN[dC]-NH2; thioether N-15)
